Values quoted from earlier work, collected in patent US11154558B2, “Prevention of atherosclerotic events with direct factor Xa inhibitors” (Adams Pharmaceuticals LLC, priority 2016, dated 2021).
Where two headings read alike, the source gives them in different places.

What was measured:
hERG = hERG (Homo sapiens, UniProt Q12809)
[1] = system: atherosclerotic plaques in ApoE^−/−mice
[2] = usual dose about 15 mg to about 20 mg per day
[3] = human, in vivo
[4] = human, in vivo; remark: listed apart in the source
[5] = ApoE−/− mice treated with rivaroxaban

Sequence of hERG (Q12809 whole entry): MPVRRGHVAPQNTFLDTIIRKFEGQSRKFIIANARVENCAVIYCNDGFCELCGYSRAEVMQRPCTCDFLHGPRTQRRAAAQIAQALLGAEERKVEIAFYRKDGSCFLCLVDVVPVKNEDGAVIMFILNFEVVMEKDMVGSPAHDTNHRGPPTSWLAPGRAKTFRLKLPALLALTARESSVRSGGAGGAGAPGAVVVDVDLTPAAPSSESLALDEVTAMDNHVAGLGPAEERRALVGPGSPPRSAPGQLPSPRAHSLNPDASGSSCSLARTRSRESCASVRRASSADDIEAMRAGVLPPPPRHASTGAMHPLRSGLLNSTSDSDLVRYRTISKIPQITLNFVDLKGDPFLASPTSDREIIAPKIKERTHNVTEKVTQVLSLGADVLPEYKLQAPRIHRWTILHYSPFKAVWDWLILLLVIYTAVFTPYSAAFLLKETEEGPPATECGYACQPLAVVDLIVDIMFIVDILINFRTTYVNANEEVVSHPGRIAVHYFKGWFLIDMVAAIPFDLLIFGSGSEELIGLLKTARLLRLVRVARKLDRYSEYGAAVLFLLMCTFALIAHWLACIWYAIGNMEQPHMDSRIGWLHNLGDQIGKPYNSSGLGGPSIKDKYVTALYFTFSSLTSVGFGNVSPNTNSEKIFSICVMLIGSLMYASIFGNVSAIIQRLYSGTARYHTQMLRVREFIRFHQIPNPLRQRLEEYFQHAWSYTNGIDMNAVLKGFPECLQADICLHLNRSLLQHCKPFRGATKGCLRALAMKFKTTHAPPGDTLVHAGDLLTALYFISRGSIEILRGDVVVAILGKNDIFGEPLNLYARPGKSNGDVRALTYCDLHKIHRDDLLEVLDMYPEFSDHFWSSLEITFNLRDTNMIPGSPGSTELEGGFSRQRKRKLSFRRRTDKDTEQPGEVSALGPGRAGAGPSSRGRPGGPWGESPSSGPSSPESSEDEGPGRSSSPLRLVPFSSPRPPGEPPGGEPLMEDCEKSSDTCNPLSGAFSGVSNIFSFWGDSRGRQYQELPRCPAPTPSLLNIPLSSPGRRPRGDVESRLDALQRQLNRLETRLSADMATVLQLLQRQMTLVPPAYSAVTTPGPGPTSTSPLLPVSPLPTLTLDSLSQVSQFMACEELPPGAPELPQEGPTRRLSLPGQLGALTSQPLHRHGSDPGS

risk of a major bleeding event ([2]; one reported study) [%]	risk of a major bleeding event ([2]; second study) [%]	patients affected by bleeding (major bleeding events) [3] [%]	SMILES	hERG affinity (hERG)	direct effect on platelet aggregation (platelet aggregation)	accumulation of macrophages in plaques [1, 5]	atherosclerotic plaque stability and plaque progression [1, 5]	collagen contents in atherosclerotic plaques [1, 5]	expression of matrix metallopeptidase-9 (MMP-9) [1, 5]	lipid deposition in plaques [1, 5]	plasma levels of FXa or thrombin antithrombin ([1]; ApoE−/− mice, administration of rivaroxaban)	prevalence of major bleeding versus placebo [4]
–	–	–	COc1ccc(NC(=O)c2ccc(C(=N)N(C)C)cc2)c(C(=O)Nc2ccc(Cl)cn2)c1 [Betrixaban]	low hERG affinity	–	–	–	–	–	–	–	–
4.3	1.7	–	O=C(NC[C@H]1CN(c2ccc(N3CCOCC3=O)cc2)C(=O)O1)c1ccc(Cl)s1 [rivaroxaban]	–	no direct effect on platelet aggregation	reduced accumulation	stabilized atherosclerotic plaques and attenuated plaque progression	increased collagen contents	decreased expression	decreased lipid deposition	did not change	–
–	–	1.7	COc1ccc(-n2nc(C(N)=O)c3c2C(=O)N(c2ccc(N4CCCCC4=O)cc2)CC3)cc1 [apixaban]	–	no direct effect on platelet aggregation	–	–	–	–	–	–	no increased prevalence of major bleeding
